Source: patent US11919918B2, “P2X3 andor P2X2/3 receptor antagonist, pharmaceutical composition comprising same, and use thereof” (BEIJING TIDE PHARMACEUTICAL CO., LTD., priority 2017, dated 2024)
pIC50: −log10 of the molar value.

Experiments:
[1] = biological target: human P2X2/3 receptor (Homo sapiens (Human), UniProt P56373+Q9UBL9); assay: Inhibitory activity on human P2X2/3 receptor (calcium 6 dye FLIPR assay, agonist α,β-MeATP); assay type: cell-based; conditions: HEK293-P2X2/3 stably expressing cell line, FLIPR Tetra
Experimental: (§1) Biological Assay: Determination of the Inhibitory Activity of the Compounds on Human P2X3 and P2X2/3 Receptors
(§2) Cells were seeded into a poly-D-lysine-coated 384-well cell culture plate (Corning) at a density of 11,000 cells/well/25 μL of cell inoculation medium, and were cultured in a cell incubator overnight. On the day of the test, the calcium 6 dye was diluted to a 2× concentration with a assay buffer, 25 μL of the 2× calcium 6 dye was added to the 384-well cell culture plate, which was incubated at 37° C. for 2 hours, and then placed at room temperature for further use. The test compound and the agonist, α,β-MeATP were diluted to a 7× concentration with the assay buffer, 10 μL of the 7× test compound was added to the 384-well cell culture plate, which was incubated at room temperature for 15 minutes, and 10 μL of the 7× α,β-MeATP was transferred into the 384-well cell culture plate. The data were measured and analyzed using FLIPR Tetra, and the half inhibitory concentration (IC50) of the test compound on P2X3 and P2X2/3 receptors was calculated with the GraphPad Prism four-parameter equation.
(§3) Cell lines: human embryonic kidney cells HEK293-P2X3 and HEK293-P2X2/3 stably expressing cell lines;
(§4) Complete cell culture medium: DMEM High Glucose (Life Technology), which contained 10% fetal bovine serum, 4 mM GlutaMAX, 1% penicillin-streptomycin, and 350 μg/mL G418;
(§5) Cell inoculation medium: DMEM High Glucose (Life Technology), which contained 2% fetal bovine serum, and 4 mM GlutaMAX;
(§6) Cell culture conditions: 37° C., 5% CO2;
(§7) Assay buffer: HBSS (containing calcium and magnesium ions), which contained 20 mM HEPES;
(§8) Detection equipment: FLIPR Tetra (Molecular Devices);

[2] = biological target: human P2X3 receptor (Homo sapiens (Human), UniProt P56373); assay: Inhibitory activity on human P2X3 receptor (calcium 6 dye FLIPR assay, agonist α,β-MeATP); assay type: cell-based; conditions: HEK293-P2X3 stably expressing cell line, FLIPR Tetra
Experimental: as §1, §2, §3, §4, §5, §6, §7, §8

human P2X2/3 receptor, sequence (Q9UBL9 whole entry): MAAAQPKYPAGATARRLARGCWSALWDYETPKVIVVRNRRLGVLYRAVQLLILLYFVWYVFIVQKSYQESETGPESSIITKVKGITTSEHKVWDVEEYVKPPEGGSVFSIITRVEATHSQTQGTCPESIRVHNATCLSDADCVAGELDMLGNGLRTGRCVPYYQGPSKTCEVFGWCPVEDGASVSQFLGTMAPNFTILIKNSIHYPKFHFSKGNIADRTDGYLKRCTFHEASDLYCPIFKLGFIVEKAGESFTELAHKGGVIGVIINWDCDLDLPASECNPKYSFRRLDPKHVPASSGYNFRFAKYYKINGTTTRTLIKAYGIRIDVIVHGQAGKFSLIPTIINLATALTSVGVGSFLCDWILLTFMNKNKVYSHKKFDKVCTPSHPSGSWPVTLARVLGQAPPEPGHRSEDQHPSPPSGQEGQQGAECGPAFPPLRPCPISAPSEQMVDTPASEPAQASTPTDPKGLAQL
human P2X2/3 receptor, sequence (P56373 whole entry): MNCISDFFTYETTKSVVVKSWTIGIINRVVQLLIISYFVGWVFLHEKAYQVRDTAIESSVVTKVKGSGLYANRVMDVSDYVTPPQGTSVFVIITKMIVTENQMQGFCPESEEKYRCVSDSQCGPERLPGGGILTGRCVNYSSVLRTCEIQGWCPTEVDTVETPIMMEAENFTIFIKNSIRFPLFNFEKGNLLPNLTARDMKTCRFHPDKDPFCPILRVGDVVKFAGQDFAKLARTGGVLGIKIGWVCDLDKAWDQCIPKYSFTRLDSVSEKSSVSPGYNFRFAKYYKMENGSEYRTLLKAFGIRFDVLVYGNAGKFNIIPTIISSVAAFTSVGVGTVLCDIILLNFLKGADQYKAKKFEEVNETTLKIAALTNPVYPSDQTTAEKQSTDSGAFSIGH
human P2X3 receptor, sequence (P56373 whole entry): as above

Row | SMILES | pIC50 [1] | pIC50 [2]
1 | C=C(C)c1cnc(SC)cc1Oc1cnc(N)nc1N [Compound C208, 5-((2-(methylthio)-5-(prop-1-en-2-yl)pyridin-4-yl)oxy)pyrimidine-2,4-diamine] | 6.98 | 7.12
2 | CC[C@@H](CO)Nc1nc(N)ncc1Oc1cc(Br)ncc1C(C)C [Compound C209, (S)-2-((2-amino-5-((2-bromo-5-isopropylpyridin-4-yl)oxy)pyrimidin-4-yl)amino)but-1-ol] | 6.68 | 6.84
3 | CC(C)c1cnc(Br)cc1Oc1cnc(N)nc1NCCN1CCCC1 [Compound C210, 5-((2-bromo-5-isopropylpyridin-4-yl)oxy)-N^4-(2-(pyrrolidin-1-yl)ethyl) pyrimidine-2,4-diamine] | 6.40 | 6.57
4 | C#Cc1cc(Oc2cnc(N)nc2NCCO)c(C(C)C)cn1 [Compound C211, 2-((2-amino-5-((2-ethynyl-5-isopropylpyridin-4-yl)oxy)pyrimidin-4-yl)amino)ethanol] | 6.92 | 7.19
5 | C#Cc1cc(Oc2cnc(N)nc2NC(C)C)c(C(C)C)cn1 [Compound C212, 5-((2-ethynyl-5-isopropylpyridin-4-yl)oxy)-N^4-isopropylpyrimidine-2,4-diamine] | 6.91 | 7.09
6 | C#Cc1cc(Oc2cnc(N)nc2NC)c(C(C)C)cn1 [Compound C213, 5-((2-ethynyl-5-isopropylpyridin-4-yl)oxy)-N^4-methylpyrimidine-2,4-diamine] | 6.53 | 6.95
7 | C=C(C)c1cnc(NCC)cc1Oc1cnc(N)nc1N [Compound C214, 5-((2-(ethylamino)-5-(prop-1-en-2-yl)pyridin-4-yl)oxy)pyrimidine-2,4-diamine] | 7.14 | 7.36
8 | C#Cc1cc(Oc2cnc(N)nc2N)c(C(=C)C)cn1 [Compound C215, 5-((2-ethynyl-5-(prop-1-en-2-yl)pyridin-4-yl)oxy) pyrimidine-2,4-diamine] | 6.71 | 7.05
9 | C#Cc1cc(Oc2cnc(N)nc2NCC(O)CO)c(C(C)C)cn1 (centres unmarked) [Compound C216, 3-((2-amino-5-((2-ethynyl-5-isopropylpyridin-4-yl)oxy)pyrimidin-4-yl)amino)propane-1,2-diol] | 7.19 | 7.21
10 | CC(C)c1cnc(Cl)cc1Oc1cnc(NC(CO)CO)nc1N [Compound C218, 2-((4-amino-5-((2-chloro-5-isopropyl-pyridin-4-yl)oxy)pyrimidin-2-yl)amino) propane-1,3-diol] | 6.42 | 6.73
11 | CC(C)c1cnc(Br)cc1Oc1cnc(N)nc1NNC(=O)OC(C)(C)C [Compound C222, tert-butyl 2-(2-amino-5-((2-bromo-5-isopropylpyridin-4-yl)oxy)pyrimidin-4-yl)hydrazine-1-carboxylate] | 7.40 | 7.32
12 | CC(C)c1cnc(Br)cc1Oc1cnc(NCCO)nc1NCCO [Compound C226, 2,2′-((5-((2-bromo-5-isopropylpyridin-4-yl)oxy)pyrimidin-2,4-diyl)bis(azanediyl))diethanol] | 6.81 | 6.94
13 | C#Cc1cc(Oc2cnc(NC(CO)CO)nc2N)c(C(C)C)cn1 [Compound C228, 2-((4-amino-5-((2-ethynyl-5-isopropyl-pyrdin-4-yl)oxy)pyrimidin-2-yl)amino) propane-1,3-diol] | 6.90 | 6.92
14 | C#Cc1cc(Oc2cnc(NCC(O)CO)nc2N)c(C(C)C)cn1 (centres unmarked) [Compound C229, 3-((4-amino-5-((2-ethynyl-5-isopropyl-pyridin-4-yl)oxy)pyrimidin-2-yl)amino) propane-l,2-diol] | 6.95 | 7.19
15 | C#Cc1cc(Oc2cnc(NCCO)nc2N)c(C(C)C)cn1 [Compound C230, 2-((4-amino-5-((2-ethynyl-5-isopropyl-pyridin-4-yl)oxy)pyrimidin-2-yl)amino) ethanol] | 6.97 | 7.22
16 | C#Cc1cc(Oc2cnc(NC(C)C)nc2N)c(C(C)C)cn1 [Compound C233, 5-((2-ethynyl-5-isopropyl-pyrdin-4-yl)oxy)-N^2-isopropyl-pyrmidine-2,4-diamine] | 6.90 | 7.14
17 | CC(C)c1cnc(Br)cc1Oc1cnc(NCC(O)CO)nc1N (centres unmarked) [Compound C235, 3-((4-amino-5-((2-bromo-5-isopropyl-pyridin-4-yl)oxy)pyrimidin-2-yl)amino) propane-1,2-diol] | 6.84 | 7.05
18 | CC(C)c1cnc(Br)cc1Oc1cnc(NCCO)nc1N [Compound C236, 2-((4-amino-5-((2-bromo-5-isopropyl-pyridin-4-yl)oxy)pyrimidin-2-yl)amino)ethanol] | 6.87 | 7.06
19 | CNc1ncc(Oc2cc(Br)ncc2C(C)C)c(N)n1 [Compound C237, 5-((2-bromo-5-isopropylpyridin-4-yl)oxy)-N^2-methylpyrimidine-2,4-diamine] | 6.11 | 6.44
20 | CC(C)c1cnc(Br)cc1Oc1cnc(NC2CC2)nc1N [Compound C238, 5-((2-bromo-5-isopropylpyridin-4-yl)oxy)-N^2-cyclopropyl-pyrimidine-2,4-diamine] | 6.69 | 6.98
21 | CC(C)Nc1ncc(Oc2cc(Br)ncc2C(C)C)c(N)n1 [Compound C239, 5-((2-bromo-5-isopropylpyridin-4-yl)oxy)-N^2-isopropyl-pyrimidine-2,4-diamine] | 6.88 | 6.97
22 | CC(C)c1ncc(Cl)cc1Oc1cnc(N)nc1N [Reference Compound C10, 5-((5-chloro-2-isopropylpyridin-3-yl)oxy)pyrimidine-2,4-diamine, reference compound] | 5.74 | 5.60
